Source: US7273848B2, “Apolipoprotein A-I agonists and their use to treat dyslipidemic disorders” (priority 1997, dated 2007)

Tested on: HDL cholesterol
Assay: HDL cholesterol in rabbits after injection of phospholipid/peptide complex
Type: in vivo, rabbit
Details: 10 mg/kg i.v. as phospholipid complex
Description: Small discoidal particles consisting of phospholipid (DPPC) and peptide 146 (SEQ ID NO:146) were prepared following the cholate dialysis method. The phospholipid was dissolved in chloroform and dried under a stream of nitrogen. The peptide was dissolved in buffer (saline) at a concentration of 1-2 mg/ml. The lipid film was redissolved in buffer containing cholate (43° C.) and the peptide solution was added at a 3-1 phospholipid/peptide ratio. The mixture was incubated overnight at 43° C. and then dialyzed at 43° C. (24 hr.), room temperature (24 hr.) and 4° C. (24 hr.), with three changes of buffer (large volumes) at temperature point. The complexes were filter sterilized (0.22μ) for injection and storage at 4° C.
Male New Zealand White rabbits (2.5-3 kg) were injected intravenously with a dose of phospholipid/peptide complex (8 mg/kg bodyweight peptide 146 (SEQ ID NO:146) or 10 mg/kg bodyweight ApoA-I, expressed as peptide or protein content) in a single bolus injection not exceeding 10-15 ml. The animals were slightly sedated before the manipulations. Blood samples (collected on EDTA) were taken before and 5, 15, 30, 60, 240 and 1440 minutes after injection. The hematocrit (Hct) was determined for each sample. Samples were aliquoted and stored at −20° C. before analysis.
Plasma Lipids. The total plasma cholesterol, plasma triglycerides and plasma phospholipids were determined enzymatically using commercially available assays according to the manufacturer's protocols (Boehringer Mannheim, Mannheim, Germany and Biomerieux, 69280, Marcy-l'étoile, France).
Lipoprotein Profiles. The plasma lipoprotein profiles of the fractions obtained after the separation of the plasma into its lipoprotein fractions were determined by spinning in a sucrose density gradient. The fractions were collected and in each individual fraction the phospholipid and cholesterol content was measured enzymatically.

“Native ApoA-I: ApoA-I (isolated from human plasma), used as positive control; injected as phospholipid complex in rabbits” was tested, and the “Increase in HDL Cholesterol (%)” value (5 min.) was 19.3%, the “Increase in HDL Cholesterol (%)” value (15 min.) was 16% and the “Increase in HDL Cholesterol (%)” value (60 min.) was 15.8%. The “Increase in HDL Cholesterol (%)” value (240 min.) was −24.1%.
